Where two headings read alike, the source gives them in different places.
Tested on: HCT116 MTAP-deleted cell lines
Experiment: Cell viability assay (CellTiter-Glo, 7 days), HCT116 MTAP-deleted
Assay type: cell-based
Conditions: Homo sapiens, HCT-116, HCT116 MTAP-deleted, class symbols, read-out: CC50
Summary of the method: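 PRMT5 inhibitors were serially diluted in DMSO and acoustically spotted as dose-response series into plates before cell seeding. Cells were grown with compound for 7 days at 37 °C, 5% CO2, 90% humidity, then viability was read by CellTiter-Glo luminescence and reported as CC50.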

Compound | CC50 (cell viability assay) | CC50 (cell viability)
Cc1ncc2c(N)nc3cnc(C(=O)N4CCC[C@@H]5Oc6cc(S(F)(F)(F)(F)F)ccc6[C@@H]54)cc3n12 [Fg-43, (4-amino-1-methylimidazo[1,5-a]pyrido[3,4-e]pyrazin-8-yl)((4aS,9bS)-7-(pentafluoro-16-sulfaneyl)-3,4,4a,9b-tetrahydrobenzofuro[3,2-b]pyridin-1(2H)-yl)methanone] | < 100 nM | 
C[C@H]1CN(C(=O)c2cc3c(cc2Cl)nc(N)c2cncn23)[C@H]2c3ccc(C(F)(F)F)cc3C[C@H]2O1 [Ff-406, (4-amino-7-chloroimidazo[1,5-a]quinoxalin-8-yl)((2S,4aS,9aR)-2-methyl-7-(trifluoromethyl)-2,3,9,9a-tetrahydroindeno[2,1-b][1,4]oxazin-4(4aH)-yl)methanone] | < 100 nM | 
CCN(C(=O)c1cc2c(cc1F)nc(N)c1cncn12)[C@@H](C)c1ccc(C(F)(F)F)cn1 [Ff-543, (S)-4-amino-N-ethyl-7-fluoro-N-(1-(5-(trifluoromethyl)pyridin-2-yl)ethyl)imidazo[1,5-a]quinoxaline-8-carboxamide] | < 100 nM | 
Nc1nc2ccc(C(=O)N3CCC[C@@H]4Oc5cc(C(F)(F)F)c(F)cc5[C@@H]43)cc2n2cncc12 [Ff-389, (4-aminoimidazo[1,5-a]quinoxalin-8-yl)((4aS,9bS)-8-fluoro-7-(trifluoromethyl)-3,4,4a,9b-tetrahydrobenzofuro[3,2-b]pyridin-1(2H)-yl)methanone] | < 100 nM | 
COc1cc(C(F)(F)F)ccc1CN(C)C(=O)c1ccc2nc(N)c3cncn3c2c1 [Ff-125, 4-amino-N-(2-methoxy-4-(trifluoromethyl)benzyl)-N-methylimidazo[1,5-a]quinoxaline-8-carboxamide] |  | 100 to 1000 nM
Nc1nc2cc(F)c(C(=O)N3CCC[C@@H]4Oc5cc(C(F)(F)F)ccc5[C@@H]43)cc2n2c(Br)ncc12 (single isomer, unassigned) [Ff-495] | 100 to 1000 nM | 
C[C@@H]1CN(C(=O)c2cc3c(cn2)nc(N)c2cncn23)[C@H]2c3cc(F)c(OC(F)(F)F)cc3C[C@H]2O1 (single isomer, unassigned) [Ff-195] |  | < 100 nM
Nc1nc2cc(F)c(C(=O)N3CCO[C@@H]4Cc5cc(OC(F)(F)F)c(F)cc5[C@@H]43)cc2n2cncc12 [Ff-176, (4-amino-7-fluoroimidazo[1,5-a]quinoxalin-8-yl)((4aS,9aR)-6-fluoro-7-(trifluoromethoxy)-2,3,9,9a-tetrahydroindeno[2,1-b][1,4]oxazin-4(4aH)-yl)methanone] |  | < 100 nM
CO[C@@H]1Cc2cc(C(F)(F)F)ccc2[C@@H]1N(C)C(=O)c1cc2c(cc1F)nc(N)c1cncn12 [Ff-581, 4-amino-7-fluoro-N-((1S,2R)-2-methoxy-5-(trifluoromethyl)-2,3-dihydro-1H-inden-1-yl)-N-methylimidazo[1,5-a]quinoxaline-8-carboxamide] | 100 to 1000 nM | 
Nc1nc2cc(C3CC3)c(C(=O)N3CCC[C@@H]4Oc5cc(C(F)(F)F)ccc5[C@@H]43)cc2n2cncc12 [Fg-56, (4-amino-7-cyclopropylimidazo[1,5-a]quinoxalin-8-yl)((4aS,9bS)-7-(trifluoromethyl)-3,4,4a,9b-tetrahydrobenzofuro[3,2-b]pyridin-1(2H)-yl)methanone] | 100 to 1000 nM | 
Cc1ncc2c(N)nc3cnc(C(=O)N4CCC[C@@H]5Oc6c(ccc(C(F)(F)F)c6F)[C@@H]54)cc3n12 [Ff-107, (4-amino-1-methylimidazo[1,5-a]pyrido[3,4-e]pyrazin-8-yl)((4aS,9bS)-6-fluoro-7-(trifluoromethyl)-3,4,4a,9b-tetrahydrobenzofuro[3,2-b]pyridin-1(2H)-yl)methanone] |  | < 100 nM
CC1(N(Cc2ccc(C(F)(F)F)cn2)C(=O)c2cc3c(cc2F)nc(N)c2cncn23)CC1 [Ff-468, 4-amino-7-fluoro-N-(1-methylcyclopropyl)-N-((5-(trifluoromethyl)pyridin-2-yl)methyl)imidazo[1,5-a]quinoxaline-8-carboxamide] | < 100 nM | 
Nc1nc2cc(F)c(C(=O)N3CCOC[C@H]3c3ccc(OC(F)(F)F)cc3)cc2n2cncc12 (single isomer, unassigned) [Ff-556] | 100 to 1000 nM | 
Nc1nc2cc(F)c(C(=O)N3CCC[C@@H]4Oc5cc(Cl)ccc5[C@@H]43)cc2n2cncc12 [Ff-260, (4-amino-7-fluoroimidazo[1,5-a]quinoxalin-8-yl)((4aS,9bS)-7-chloro-3,4,4a,9b-tetrahydrobenzofuro[3,2-b]pyridin-1(2H)-yl)methanone] |  | < 100 nM
Cc1ncc2c(N)nc3cnc(C(=O)N(C)[C@@H]4COc5cc(C67CC(C6)C7)ccc54)cc3n12 [Ff-466, (S)-4-amino-N-(6-(bicyclo[1.1.1]pentan-1-yl)-2,3-dihydrobenzofuran-3-yl)-N,1-dimethylimidazo[1,5-a]pyrido[3,4-e]pyrazine-8-carboxamide] | < 100 nM | 
Nc1nc2ccc(C(=O)N3CCO[C@@H]4Cc5cc(OC(F)(F)F)c(F)cc5[C@@H]43)cc2n2cncc12 [Ff-177, (4-aminoimidazo[1,5-a]quinoxalin-8-yl)((4aS,9aR)-6-fluoro-7-(trifluoromethoxy)-2,3,9,9a-tetrahydroindeno[2,1-b][1,4]oxazin-4(4aH)-yl)methanone] |  | < 100 nM

Compound | CC50 (cell viability assay) | CC50 (cell viability)
Nc1nc2cc(F)c(C(=O)N3CCO[C@@H]4Cc5cc(OC(F)F)ccc5[C@@H]43)cc2n2cncc12 [Fg-24, (4-amino-7-fluoroimidazo[1,5-a]quinoxalin-8-yl)((4aS,9aR)-7-(difluoromethoxy)-2,3,9,9a-tetrahydroindeno[2,1-b][1,4]oxazin-4(4aH)-yl)methanone] | < 100 nM | 
C[C@H]1CC2Oc3cc(C(F)(F)F)ccc3C2N(C(=O)c2cc3c(cn2)nc(N)c2cncn23)C1 (stereo partly drawn) [Ff-386, (4-aminoimidazo[1,5-a]pyrido[3,4-e]pyrazin-8-yl)((3S)-3-methyl-7-(trifluoromethyl)-3,4,4a,9b-tetrahydrobenzofuro[3,2-b]pyridin-1(2H)-yl)methanone] | < 100 nM | 
CN(C(=O)c1cc2c(cc1F)nc(N)c1cncn12)C1COc2cc(Cl)c(Br)cc21 (stereo not shown) [Ff-608, 4-amino-N-(5-bromo-6-chloro-2,3-dihydrobenzofuran-3-yl)-7-fluoro-N-methylimidazo[1,5-a]quinoxaline-8-carboxamide] | < 100 nM | 
Nc1nc2cc(F)c(C(=O)N3C[C@H](F)CC4Oc5cc(C(F)(F)F)ccc5[C@@H]43)cc2n2cncc12 (mixture of isomers) [Ff-112, Rac-(4-amino-7-fluoroimidazo[1,5-a]quinoxalin-8-yl)((3R,4aS,9bS)-3-fluoro-7-(trifluoromethyl)-3,4,4a,9b-tetrahydrobenzofuro[3,2-b]pyridin-1(2H)-yl)methanone] |  | < 100 nM
C[C@H]1CN(C(=O)c2cc3c(cc2F)nc(N)c2cncn23)[C@H]2c3ccc(-c4cnn(C(F)F)c4)c(F)c3C[C@H]2O1 [Ff-200, (4-amino-7-fluoroimidazo[1,5-a]quinoxalin-8-yl)((2S,4aS,9aR)-7-(1-(difluoromethyl)-1H-pyrazol-4-yl)-8-fluoro-2-methyl-2,3,9,9a-tetrahydroindeno[2,1-b][1,4]oxazin-4(4aH)-yl)methanone] |  | < 100 nM
Nc1nc2cc(F)c(C(=O)N(Cc3ccc(C(F)(F)F)cn3)c3ccccc3)cc2n2cncc12 [Ff-277, 4-amino-7-fluoro-N-phenyl-N-((5-(trifluoromethyl)pyridin-2-yl)methyl)imidazo[1,5-a]quinoxaline-8-carboxamide] |  | < 100 nM
Nc1nc2cc(F)c(C(=O)N3CC[C@H]4C[C@@H]3c3ccc(OC(F)(F)F)cc3O4)cc2n2cncc12 (racemic) [Ff-372, Rac-(4-amino-7-fluoroimidazo[1,5-a]quinoxalin-8-yl)((2S,6R)-9-(trifluoromethoxy)-3,4-dihydro-2H-2,6-methanobenzo[b][1,5]oxazocin-5(6H)-yl)methanone] | < 100 nM | 
C[C@@H]1CN(C(=O)c2ccc3nc(N)c4cncn4c3c2)[C@H]2c3ccc(OC(F)(F)F)cc3C[C@H]2O1 (single isomer, unassigned) [Ff-187] |  | < 100 nM
Nc1nc2ccc(C(=O)N(Cc3ccc(C(F)(F)F)cn3)C34COC(C3)C4)cc2n2cncc12 [Ff-267, 4-amino-N-(2-oxabicyclo[2.1.1]hexan-4-yl)-N-((5-(trifluoromethyl)pyridin-2-yl)methyl)imidazo[1,5-a]quinoxaline-8-carboxamide] |  | 100 to 1000 nM
CO[C@@H]1Cc2cc(-c3cnn(C(F)F)c3)ccc2[C@@H]1N(C)C(=O)c1cc2c(cc1F)nc(N)c1cncn12 [Ff-580, 4-amino-N-((1S,2R)-5-(1-(difluoromethyl)-1H-pyrazol-4-yl)-2-methoxy-2,3-dihydro-1H-inden-1-yl)-7-fluoro-N-methylimidazo[1,5-a]quinoxaline-8-carboxamide] | 100 to 1000 nM | 
CC(C)N(Cc1ccc(-c2ccnn2C(F)(F)F)cc1F)C(=O)c1cc2c(cc1F)nc(N)c1cncn12 [Ff-216] |  | < 100 nM
CN(C(=O)c1cc2c(cc1F)nc(N)c1cncn12)[C@H]1COc2cc(OC(F)(F)F)ccc21 (single isomer, unassigned) [Ff-558] | 100 to 1000 nM | 
Cc1ncn2c1c(N)nc1cc(F)c(C(=O)N3CC[C@H]4C[C@@H]3c3ccc(C(F)(F)F)nc3O4)cc12 [Fg-33, (4-amino-7-fluoro-3-methylimidazo[1,5-a]quinoxalin-8-yl)((2S,6R)-9-(trifluoromethyl)-3,4-dihydro-2H-2,6-methanopyrido[2,3-b][1,5]oxazocin-5(6H)-yl)methanone] | < 100 nM | 
CN(Cc1ccc([C@@H]2C[C@H]2c2ccn(C(F)F)n2)cn1)C(=O)c1cc2c(cc1F)nc(N)c1cncn12 [Ff-428, 4-amino-N-[[5-[(1R,2R)-2-[1-(difluoromethyl)pyrazol-3-yl]cyclopropyl]-2-pyridyl]methyl]-7-fluoro-N-methyl-imidazo[1,5-a]quinoxaline-8-carboxamide] | 100 to 1000 nM | 
Nc1nc2cc(F)c(C(=O)N(Cc3ccc(OC(F)F)cc3F)C34CC(C3)C4)cc2n2cncc12 [Ff-265, 4-amino-N-(bicyclo[1.1.1]pentan-1-yl)-N-(4-(difluoromethoxy)-2-fluorobenzyl)-7-fluoroimidazo[1,5-a]quinoxaline-8-carboxamide] |  | < 100 nM
